This is an account of results in patent US20140296248A1, “METHODS AND COMPOSITIONS FOR PREDICTING RESISTANCE TO ANTICANCER TREATMENT” (Stichting het Nederlands Kanker Instiuut-Antoni van …, priority 2011, published 2014).

Entries after “also recorded” stand apart in the source; their conditions may differ.

The test system of test [1] is ERK signaling. Briefly: ERK signaling in MED12-suppressed cancer cells in presence of drugs. The test is classed as cell-based, human. On the procedure:
The cells were fixed, stained and photographed after 10 (untreated) or 28 days (treated). […] The cells were fixed, stained and photographed after 14 (untreated) or 28 days (treated). […] G) Colony formation assay of Huh-7 cells expressing pLKO control or shMED12 vectors (#4 and #5) were cultured in 2 μM sorafenib. The cells were fixed, stained and photographed after 14 (untreated) or 21 days (treated). […] Huh-7 cells expressing pLKO control or shMED12 vectors were grown in the absence or presence of 4 μM sorafenib for 6 hours and the cell lysates were harvested for western blotting analysis.

Test [2] relates to SK-CO-1 colorectal cancer cells (KRASV12). In words: Long-term colony formation assay in SK-CO-1 cells. It is filed as cell-based, human. The note with it: for effect of recombinant TGFβ on response of SK-CO-1 cells to AZD6244: TGFβ plus AZD6244, TGFβ-dosage dependent. How it is done:
(§1) Cells were seeded into 6-well plates (2-5×10^4 cells/well) and cultured both in the absence and presence of drugs as indicated. More details are described in Huang et al., 2009 (Huang et al., 2009). All knockdown and overexpression experiments were done by retroviral or lentiviral infection. All relevant assays were performed independently at least three times.

Test [3] has as its system H3122 cells (EML4-ALK NSCLC). Briefly: Long-term colony formation / cell proliferation assay in H3122 cells. The test is classed as cell-based, human. The note with it: for effect of recombinant TGFβ on crizotinib response of H3122 cells: TGFβ in combination with crizotinib, TGFβ-dosage dependent. How it is done:
(§2) Single cell suspensions of the lung cancer cell lines were seeded into 6-well plates (2×10^4 cells/well) and cultured both in the absence and presence of the ALK inhibitors. At the endpoints of colony formation assays, cells were fixed with formaldehyde, stained with crystal violet (0.1% w/v) and photographed. All relevant assays were performed independently at least three times. All knockdown and overexpression experiments were done by retroviral or lentiviral infections.
(§3) Cells were seeded into 6-well plates (2-5×10^4 cells/well) and cultured both in the absence and presence of drugs as indicated. […] All knockdown and overexpression experiments were done by retroviral or lentiviral infection. All relevant assays were performed independently at least three times.

For test [4], the system named is phospho-ERK. In words: Western blotting of phospho-ERK in H3122 cells. The test is classed as cell-based, human. The note with it: 20 nM NVP-TAE684, 24 hours. On the procedure:
(A) MED12^KD cells retain phospho-ERK levels in the presence of ALK inhibitor in EML4-ALK cells. H3122 cells expressing controls (pRS or shGFP) or shMED12 vectors were gown in the absence or presence of 20 nM NVP-TAE684 for 24 hours and the cell lysates were harvested for western blotting analysis. (B) SMARCE1^KD cells have elevated phospho-ERK in EML4-ALK cells. H3122 cells expressing controls (pRS or shGFP) or shSMARCE1 vectors were gown in the absence or presence of 20 nM NVP-TAE684 for 24 hours and the cell lysates were harvested for western blotting analysis. (C) MED12^KD cells have elevated phospho-ERK levels in EGFR mutant cells.
Given that loss of MED12 or SMARCE1 causes resistance to multiple tyrosine kinase inhibitors in NSCLC cell lines, Applicants asked whether the activity of downstream components of receptor tyrosine kinase signaling is altered. ERK is a key downstream component and its phosphorylation status positively correlates with its activation that can be determined by specific antibodies against the phosphorylated form of ERK. H3122 cells were infected with two independent controls shRNA vectors or shRNAs targeting either MED12 or SMARCE1 and confirmed loss of MED12 or SMARCE1 protein by immunoblotting (FIGS. 16A and B). […]
Background: Immunoblotting shows a protein as a band on a membrane.

The subject of test [5] is human NSCLC cell lines that harbor EML4-ALK translocations. The note with it: Galkin 2007; Koivunen 2008; Soda 2007; cited from earlier work.
Test [6] has as its system A375 melanoma cells (BRAFV600E). Briefly: Long-term colony formation assay in A375 cells. It is filed as cell-based, human. The note with it: for drug response of MED12 knockdown A375 cells: suppression of MED12; for effect of recombinant TGFβ on response of A375 cells to PLX4032 and AZD6244: TGFβ plus PLX4032 or AZD6244, TGFβ-dosage dependent. How it is done: as §3
Test [7] deals with H1993 cells (MET-amplified NSCLC). In words: Long-term colony formation assay in H1993 cells. The test is classed as cell-based, human. How it is done: as §2, §3
For test [8], the system named is EBC-1 cells (MET-amplified NSCLC). In words: Long-term colony formation assay in EBC-1 cells. The test is classed as cell-based, human. On the procedure: as §2, §3
The subject of test [9] is PC9 cells (EGFR delE746-A750 NSCLC). In words: Long-term colony formation / cell proliferation assay in PC9 cells. It is filed as cell-based, human. How it is done: as §2, §3
Test [10] shares this test system. The settings on record: parental cells, low nanomolar concentrations; cited from earlier work.
Test [11] relates to H3255 cells (EGFR L858R NSCLC). The note with it: parental cells, low nanomolar concentrations; cited from earlier work.
In test [12] the test system is H3255 cells (EGFR L858R NSCLC). Briefly: Long-term colony formation / cell proliferation assay in H3255 cells. The test is classed as cell-based, human. On the procedure: as §2, §3
Test [13] has as its system phospho-ERK. In words: Western blotting of phospho-ERK in PC9 cells. It is filed as cell-based, human. The settings on record: 25 nM gefitinib, 8 hours.
Procedure: (A) Validation of independent shRNAs (in pLKO vector) targeting DABP2IP in PC9 cells. […] The cells were fixed, stained and photographed after 2 weeks (untreated) or 4 weeks (EGFR inhibitors treatment). (B) The knockdown ability of each of the shRNAs was measured by examining the DAB2IP mRNA levels by qRT-PCR. Error bars denote standard deviation (SD).
To validate the results of Applicants' focused shRNA mini-screen, Applicants individually introduced the five DAB2IP shRNAs from the TRC shRNA collection into PC9 cells (FIG. 14A). […] Next, Applicants addressed whether loss of DAB2IP affects the activity of downstream signaling components of the RAS pathway, in particular the phosphorylation (activation) status of ERK. […] Next, Applicants individually introduced the five NF1 shRNAs from the TRC shRNA collection into PC9 cells (FIG. 15A).
For test [14], the system named is Huh-7 HCC cells. Briefly: Long-term colony formation assay in Huh-7 cells. It is filed as cell-based, human. How it is done: as §1

Regarding `Cn1cnc2c(F)c(Nc3ccc(Br)cc3Cl)c(C(=O)NOCCO)cc21` [AZD6244, seluteminib], in test [1], the “activation of ERK signaling by MED12 suppression in the presence of drug” value (“activation of ERK signaling” for short) is given as “persists”. In addition, the “sensitivity of SK-CO-1 cells” value in test [2] (parental cells) is reported as “highly sensitive”. In test [2] (shMED12, 0.5 μM AZD6244), the “drug response of MED12 knockdown SK-CO-1 cells” value is “conferred resistance”.
Turning to `Cc1cccc(-c2nn3c(c2-c2ccnc4ccc(C(N)=O)cc24)CCC3)n1` [LY2157299], in test [3] (1 μM LY2157299 alone, all cells), the “proliferation under monotherapy, control and MED12KD H3122 cells” value is recorded as “little effect”.
Regarding `COc1cc(N2CCC(N3CCN(C)CC3)CC2)ccc1Nc1ncc(Cl)c(Nc2ccccc2S(=O)(=O)C(C)C)n1` [NVP-TAE684], in [4] (shMED12), the “ERK phosphorylation in MED12 knockdown H3122 cells in presence of inhibitor” value is “maintained higher levels of ERK phosphorylation”. The “phosphorylated ERK in SMARCE1 knockdown H3122 cells in presence of inhibitor” value in test [4] (shSMARCE1) is given as “maintained higher levels of phosphorylated ERK”. Further, the “drug response of ARID1A knockdown H3122 cells” value in test [3] (shARID1A, 300 nM crizotinib or 2.5 nM NVP-TAE684) is recorded as “confer resistance”. The “drug response of MED12 knockdown H3122 cells” value in test [3] (shMED12 vectors, 300 nM crizotinib or 2.5 nM NVP-TAE684) is given as “confer resistance; also recorded: conferred resistance”. Besides, the “drug response of SMARCE1 knockdown H3122 cells” value in test [3] (shSMARCE1, 300 nM crizotinib or 2.5 nM NVP-TAE684) is listed as “confer resistance”. Moreover, the “inhibition of EML4-ALK NSCLC cell lines” value in test [5] was “potently inhibit”.
In the case of `O=C(NOC[C@H](O)CO)c1ccc(F)c(F)c1Nc1ccc(I)cc1F` [PD-0325901], the “drug response of MED12 knockdown A375 cells” value in test [6] was “conferred resistance”.
For the compound `CCCS(=O)(=O)Nc1ccc(F)c(C(=O)c2c[nH]c3ncc(Cl)cc23)c1F` [PLX4720], the “drug response of MED12 knockdown A375 cells” value in [6] was “conferred resistance”.
As to `C[C@@H](Oc1cc(-c2cnn(C3CCNCC3)c2)cnc1N)c1c(Cl)ccc(F)c1Cl` [crizotinib], in test [7] (shARID1A #1 and #2), the “drug response of ARID1A knockdown H1993 cells” value is given as “conferred resistance”. The “drug response of SMARCE1 knockdown H1993 cells” value in test [7] (shSMARCE1#1 and #2) is on record as “conferred resistance”. Besides, the “drug response of SMARCE1 knockdown H1993 cells reconstituted with SMARCE1-ND” value in test [7] (shSMARCE1 plus SMARCE1-ND) is on record as “restored the sensitivity”. In test [8] (shSMARCE1#1 and #2), the “drug response of SMARCE1 knockdown EBC-1 cells” value is “conferred resistance”. The “drug response of SMARCE1 knockdown EBC-1 cells reconstituted with SMARCE1-ND” value in [8] (shSMARCE1 plus SMARCE1-ND) is “restored the sensitivity”.
`C#Cc1cccc(Nc2ncnc3cc(OCCOC)c(OCCOC)cc23)c1` [erlotinib]: the “drug response of DAB2IP knockdown PC9 cells” value in [9] (shDAB2IP#1 and #3, 50 nM) is “conferred resistance”. In addition, in test [9] (shNF1#2 and #5, 50 nM), the “drug response of NF1 knockdown PC9 cells” value is “conferred resistance”. Also, in test [10], the “sensitivity of PC9 cells” value was “exquisitely sensitive”. Moreover, the “sensitivity of H3255 cells” value in [11] is given as “exquisitely sensitive”. Further, the “drug response of control H3255 cells” value in test [12] (pRS and shGFP control cells) is reported as “effectively eradicated”. In addition, the “drug response of MED12 knockdown H3255 cells” value in [12] (shMED12) is on record as “insensitive”.
For `COc1cc2ncnc(Nc3ccc(F)c(Cl)c3)c2cc1OCCCN1CCOCC1` [gefitinib], the “phosphorylation of ERK in shDAB2IP PC9 cells treated with drug” value in [13] is “maintained”. Besides, in test [1], the “activation of ERK signaling” value was “persists”.
For the compound `CNC(=O)c1cc(Oc2ccc(NC(=O)Nc3ccc(Cl)c(C(F)(F)F)c3)cc2)ccn1` [sorafenib], the “sensitivity of Huh-7 cells” value in test [14] (parental cells) is given as “sensitive”. Besides, in test [14] (shMED12, 2 μM sorafenib), the “drug response of MED12 knockdown Huh-7 cells” value is listed as “became resistant”. In test [1], the “activation of ERK signaling” value was “persists”.
As for TGFβ, in test [9] (TGFβ plus EGFR inhibitors), the “effect of recombinant TGFβ on response of PC9 cells to EGFR inhibitors” value was “conferred resistance”. The “proliferation of Huh-7 cells, recombinant TGFβ alone” value in test [14] (TGFβ treatment alone) is recorded as “growth inhibition”. Besides, the “effect of recombinant TGFβ on response of A375 cells to PLX4032 and AZD6244” value in [6] is “dosage dependent resistance”; in test [6] (listed as Recombinant TGFβ), “leads to resistance”. Also, the “proliferation of A375 cells, recombinant TGFβ alone” value in test [6] (TGFβ treatment alone) is recorded as “growth inhibition”. For the same compound, the “effect of recombinant TGFβ on crizotinib response of H3122 cells” value is listed as “continued to proliferate” in [3] and “leads to resistance” in test [3] (listed as Recombinant TGFβ). Besides, the figures for the “effect of recombinant TGFβ on response of SK-CO-1 cells to AZD6244” value in test [2] and in [2] (listed as Recombinant TGFβ) were “dosage dependent resistance” and “leads to resistance”, respectively. For the same compound, in test [12] (TGFβ plus EGFR inhibitors), the “effect of recombinant TGFβ on response of H3255 cells to EGFR inhibitors” value is “conferred resistance”.
